Measured values from PMC8102459, “3,3′-Thiodipropionic acid (TDP), a possible precursor for the synthesis of polythioesters: identification of TDP transport proteins in Variovorax paradoxus TBEA6” (Applied Microbiology and Biotechnology, 2021).

What was measured:
Test in all cases: thermal shift assay, SYPRO Orange, real-time PCR
Format in all cases: binding
[1] = biological target: T1, TctC protein with locus tag VPARA-01760 (Variovorax paradoxus, UniProt A0A0H2MDR2); settings: 1 μM protein, sodium phosphate pH 7.4, 0.1 to 3000 μM ligand
T1 construct: gene VPARA_01760; His-tagged (pET19b or pET23a)
T1 sequence (A0A0H2MDR2 1-326 limits assumed): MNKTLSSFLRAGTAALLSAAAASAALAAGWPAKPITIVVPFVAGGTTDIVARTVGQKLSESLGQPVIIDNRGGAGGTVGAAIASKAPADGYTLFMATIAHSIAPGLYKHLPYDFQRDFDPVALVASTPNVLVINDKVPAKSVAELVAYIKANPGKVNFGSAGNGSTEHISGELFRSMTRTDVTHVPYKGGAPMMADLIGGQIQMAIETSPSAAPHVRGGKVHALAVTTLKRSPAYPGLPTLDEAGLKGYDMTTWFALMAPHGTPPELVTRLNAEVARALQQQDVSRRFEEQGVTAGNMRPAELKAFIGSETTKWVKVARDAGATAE

[2] = biological target: T2, TctC-44430 (TctC, locus tag VPARA-44430) (Variovorax paradoxus, UniProt A0A0H2LXQ8); settings: 1 μM protein, sodium phosphate pH 7.4; value is the melting temperature, not the shift; control Tm not given
T2 construct: gene VPARA_44430; His-tagged (pET19b N-terminal; pET23a C-terminal also made), E. coli BL21
T2 sequence (A0A0H2LXQ8 1-329 limits assumed): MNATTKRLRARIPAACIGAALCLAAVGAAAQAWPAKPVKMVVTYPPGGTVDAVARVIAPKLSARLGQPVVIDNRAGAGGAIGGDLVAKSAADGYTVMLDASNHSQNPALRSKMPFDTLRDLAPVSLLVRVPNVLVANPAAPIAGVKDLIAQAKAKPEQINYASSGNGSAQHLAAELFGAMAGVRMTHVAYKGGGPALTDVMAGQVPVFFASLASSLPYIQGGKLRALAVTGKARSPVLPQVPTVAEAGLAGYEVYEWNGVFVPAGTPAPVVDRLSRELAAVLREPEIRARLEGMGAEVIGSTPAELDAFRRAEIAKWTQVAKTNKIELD

[3] = biological target: T2, TctC-44430 (TctC, locus tag VPARA-44430); settings: 1 μM protein, sodium phosphate pH 7.4; value is the melting temperature, not the shift; control Tm not given; remark: listed apart in the source

O=C(O)CCSCCC(=O)O [TDP, 3,3′-Thiodipropionic acid]
Tm shift [1]: VPARA-01760 also showed temperature shifts with TDP or gluconate
Tm at 3000 μM TDP [2]: 56 °C

O=C(O)[C@H](O)[C@@H](O)[C@H](O)[C@H](O)CO [gluconate]
Tm shift [1]: VPARA-01760 also showed temperature shifts with TDP or gluconate
Tm at 3000 μM gluconate [3]: 83 °C
